Assay results taken from patent publication EP0187355A1, “Process for preparing beta-lactam antibiotics” (E.R. Squibb & Sons, Inc., priority 1981, dated 1982).
Structures can show the parent of a compound that is named as a salt. Where two headings read alike, the source gives them in different places.

Tests used:
Test in all cases: MIC, agar dilution
Format in all cases: cell-based
[1] = tested on: Micrococcus luteus, 2495; settings: Micrococcus luteus, 2495, 18 h, K-10 agar, 10^4 CFU, 37°C, read-out: M.I.C.
Protocol: (§1) The following methodology is used to determine the minimum inhibitory concentration (hereinafter referred to as MIC) of the […] of this invention.
(§2) The test organisms are grown in approximately 15-20 ml of Antibiotic Assay broth (Difco) by inoculating (in tubes) the broth with a loopful of the organism from a BHI (Difco) agar slant. The inoculated tubes are incubated at 37°C for 18 to 20 hours. These cultures are assumed to contain 10^9 colony forming units (hereinafter CFU) per milliliter. The cultures are diluted 1:100 to give a final inoculum level of 10^4 CFU; dilutions are made with K-10 broth^*.
(§3) The compounds are dissolved in the appropriate diluent at a concentration of 1000 µg/ml. Twofold dilutions are made in K-10 broth resulting in a range from 1000 µg/ml to 0.5 µg/ml. 1.5 ml of each dilution is placed into individual square petri dishes to which 13.5 ml of K-10 agar^** is added. The final drug concentration in the agar ranges from 100 µg/ml to 0.05 µg/ml. Organism growth control plates containing agar only are prepared and inoculated before and after the test plates. The organisms are applied to the agar surface of each plate with the Denley Multipoint Inoculator (which delivers approximately 0.001 ml of each organism) resulting in a final inoculum level of 10^4 CFU on the agar surface.
(§4) The MIC is the lowest concentration of compound inhibiting growth of the organism.
(§5) The number following each organism refers to the number of the organism in the collection of E. R. Squibb & Sons,.Inc., Princeton, New Jersey. […] The symbol "N.T." means not tested.

[2] = tested on: Streptococcus agalactiae, 9287; settings: Streptococcus agalactiae, 9287, 18 h, K-10 agar, 10^4 CFU, 37°C, read-out: M.I.C.
Protocol: as §1, §2, §3, §4, §5

[3] = tested on: Enterobacter cloacae, 8236; settings: Enterobacter cloacae, 8236, 18 h, K-10 agar, 10^4 CFU, 37°C
Protocol: as §1, §2, §3, §4, §5

[4] = tested on: Escherichia coli, 10857; settings: Escherichia coli, 10857, 18 h, K-10 agar, 10^4 CFU, 37°C
Protocol: as §1, §2, §3
(§6) The plates are incubated at 37 °C for 18 hours and the MIC's are determined. The MIC is the lowest concentration of compound inhibiting growth of the organism.
as §5, with “The tables that follow are tabulated results obtained when the B-lactams of this invention are tested against various organisms. The number” for “The number”

[5] = tested on: Klebsiella aerogenes, 10440; settings: K-10 agar, 10^4 CFU, 37°C, 18 hours, read-out: M.I.C.
Protocol: as §1, §2, §3, §6
as §5, with “The tables that follow are tabulated results obtained when the B-lactams of this invention are tested against various organisms. The number” for “The number”

[6] = tested on: Shigella sonnei, 8449; settings: Shigella sonnei, 8449, 18 h, K-10 agar, 10^4 CFU, 37°C
Protocol: as §1, §2, §3, §6
as §5, with “The tables that follow are tabulated results obtained when the B-lactams of this invention are tested against various organisms. The number” for “The number”

[7] = tested on: Pseudomonas aeruginosa, 9545; settings: Pseudomonas aeruginosa, 9545, 18 h, K-10 agar, 10^4 CFU, 37°C, read-out: M.I.C.
Protocol: as §1, §2, §3, §6
as §5, with “The tables that follow are tabulated results obtained when the B-lactams of this invention are tested against various organisms. The number” for “The number”

[8] = tested on: Citrobacter freundii, 9518; settings: K-10 agar, 10^4 CFU, 37°C, 18 hours, read-out: M.I.C.
Protocol: as §1, §2, §3, §6
as §5, with “The tables that follow are tabulated results obtained when the B-lactams of this invention are tested against various organisms. The number” for “The number”

[9] = tested on: Staphylococcus aureus, 1276; settings: Staphylococcus aureus, 1276; K-10 agar, 10^4 CFU, 37°C, 18 hours; read-out: M.I.C.
Protocol: as §1, §2, §3, §6
as §5, with “The tables that follow are tabulated results obtained when the B-lactams of this invention are tested against various organisms. The number” for “The number”

[10] = tested on: Streptococcus faecalis, 9011; settings: Enterococcus faecalis; Streptococcus faecalis, 9011; K-10 agar, 10^4 CFU, 37°C, 18 hours; read-out: M.I.C.
Protocol: as §1, §2, §3, §6
as §5, with “The tables that follow are tabulated results obtained when the B-lactams of this invention are tested against various organisms. The number” for “The number”

[11] = tested on: Staphylococcus aureus, 10165; settings: Staphylococcus aureus, 10165; K-10 agar, 10^4 CFU, 37°C, 18 hours; read-out: M.I.C.
Protocol: as §1, §2, §3, §6
as §5, with “The tables that follow are tabulated results obtained when the B-lactams of this invention are tested against various organisms. The number” for “The number”

[12] = tested on: Enterobacter aerogenes, 10078; settings: Klebsiella aerogenes, 10078, 18 h, Enterobacter aerogenes, 10078; K-10 agar, 10^4 CFU, 37°C, 18 hours; read-out: M.I.C.
Protocol: as §1, §2, §3, §6
as §5, with “The tables that follow are tabulated results obtained when the B-lactams of this invention are tested against various organisms. The number” for “The number”

[13] = tested on: Escherichia coli, 8294; settings: Escherichia coli, 8294, 18 h, K-10 agar, 10^4 CFU, 37°C
Protocol: as §1, §2, §3, §6
as §5, with “The tables that follow are tabulated results obtained when the B-lactams of this invention are tested against various organisms. The number” for “The number”

[14] = tested on: Acinetobacter calcoaceticus, 8333; settings: Acinetobacter calcoaceticus, 8333, 18 h, K-10 agar, 10^4 CFU, 37°C, read-out: M.I.C.
Protocol: as §1, §2, §3, §6
as §5, with “The tables that follow are tabulated results obtained when the B-lactams of this invention are tested against various organisms. The number” for “The number”

[15] = tested on: Serratia marcescens, 9783; settings: Serratia marcescens, 9783, 18 h, K-10 agar, 10^4 CFU, 37°C, read-out: M.I.C.
Protocol: as §1, §2, §3, §6
as §5, with “The tables that follow are tabulated results obtained when the B-lactams of this invention are tested against various organisms. The number” for “The number”

[16] = tested on: Salmonella typhosa, 1195; settings: Salmonella enterica, TYPHOSA, 18 h, K-10 agar, 10^4 CFU, 37°C
Protocol: as §1, §2, §3, §6
as §5, with “The tables that follow are tabulated results obtained when the B-lactams of this invention are tested against various organisms. The number” for “The number”

[17] = tested on: Staphylococcus aureus, 2400; settings: Staphylococcus aureus, 2400; K-10 agar, 10^4 CFU, 37°C, 18 hours; read-out: M.I.C.
Protocol: as §1, §2, §3, §6
as §5, with “The tables that follow are tabulated results obtained when the B-lactams of this invention are tested against various organisms. The number” for “The number”

[18] = tested on: Klebsiella pneumoniae, 9527; settings: Klebsiella pneumoniae, 9527, 18 h, K-10 agar, 10^4 CFU, 37°C, read-out: M.I.C.
Protocol: as §1, §2, §3, §6
as §5, with “The tables that follow are tabulated results obtained when the B-lactams of this invention are tested against various organisms. The number” for “The number”

[19] = tested on: Proteus rettgeri, 8479; settings: Providencia rettgeri, K-10 agar, 10^4 CFU, 37°C, 18 hours, read-out: M.I.C.
Protocol: as §1, §2, §3, §6
as §5, with “The tables that follow are tabulated results obtained when the B-lactams of this invention are tested against various organisms. The number” for “The number”

[20] = tested on: Staphylococcus aureus, 2399; settings: Staphylococcus aureus, 2399, 18 h, Staphylococcus aureus, 2399; K-10 agar, 10^4 CFU, 37°C, 18 hours; read-out: M.I.C.
Protocol: as §1, §2, §3, §6
as §5, with “The tables that follow are tabulated results obtained when the B-lactams of this invention are tested against various organisms. The number” for “The number”

[21] = tested on: Escherichia coli, 10896; settings: K-10 agar, 10^4 CFU, 37°C, 18 hours
Protocol: as §1, §2, §3, §6
as §5, with “The tables that follow are tabulated results obtained when the B-lactams of this invention are tested against various organisms. The number” for “The number”

[22] = tested on: Proteus vulgaris, 9416; settings: K-10 agar, 10^4 CFU, 37°C
Protocol: as §1, §2, §3, §6
as §5, with “The tables that follow are tabulated results obtained when the B-lactams of this invention are tested against various organisms. The number” for “The number”

[23] = tested on: Proteus mirabilis, 3855; settings: Proteus mirabilis, 3855, 18 h, K-10 agar, 10^4 CFU, 37°C
Protocol: as §1, §2, §3, §6
as §5, with “The tables that follow are tabulated results obtained when the B-lactams of this invention are tested against various organisms. The number” for “The number”

[24] = tested on: Escherichia coli, 10909; settings: K-10 agar, 10^4 CFU, 37°C, 18 hours
Protocol: as §1, §2, §3, §6
as §5, with “The tables that follow are tabulated results obtained when the B-lactams of this invention are tested against various organisms. The number” for “The number”

[25] = tested on: Pseudomonas aeruginosa, 8329; settings: K-10 agar, 10^4 CFU, 37°C, 18 hours, read-out: M.I.C.
Protocol: as §1, §2, §3, §6
as §5, with “The tables that follow are tabulated results obtained when the B-lactams of this invention are tested against various organisms. The number” for “The number”

Structure (SMILES): CC1C(NC(=O)C(NC(=O)C(N)=O)c2cccs2)C(=O)N1S(=O)(=O)O (racemic) [Example 14, [3S-[3α(±),4β]]-3-[[[(aminooxoacetyl)amino]-2-thienylacetyl]amino]-4-methyl-2-oxo-1-azetidine-sulfonic acid, potassium salt]
- MIC [1]: 12.5 µg/mL
- MIC [2]: 3.1 µg/mL
- MIC [3]: 3.1 µg/mL
- MIC [4]: 0.4 µg/mL
- MIC [5]: 3.1 µg/mL
- MIC [6]: 0.8 µg/mL
- MIC [7]: 3.1 µg/mL
- MIC [8]: 1.6 µg/mL
- MIC [9]: 50 µg/mL
- MIC [10]: > 100 µg/mL
- MIC [11]: > 100 µg/mL
- MIC [12]: 3.1 µg/mL
- MIC [13]: 1.6 µg/mL
- MIC [14]: 100 µg/mL
- MIC [15]: 3.1 µg/mL
- MIC [16]: 0.8 µg/mL
- MIC [17]: 100 µg/mL
- MIC [18]: 1.6 µg/mL
- MIC [19]: 0.8 µg/mL
- MIC [20]: 50 µg/mL
- MIC [21]: 1.6 µg/mL
- MIC ([22]; 18 hours, read-out: M.I.C.): 0.8 µg/mL
- MIC ([23]; read-out: M.I.C.): 0.8 µg/mL
- MIC [24]: 0.8 µg/mL
- MIC [25]: 100 µg/mL

Structure (SMILES): CO/N=C(\C(=O)NC1C(=O)N(S(=O)(=O)O)C1(C)C)c1csc(N)n1 (racemic) [Example 25, [3±(Z)]-3-[[(2-Amino-4-thiazolyl) (methoxyimino)-acet^yl]amino]-4,4-dimethyl-2-oxo-1-azetidinesulfonic acid, potassium salt]
- MIC [1]: > 100 µg/mL
- MIC [2]: > 100 µg/mL
- MIC [3]: 100 µg/mL
- MIC [4]: 6.3 µg/mL
- MIC [5]: 100 µg/mL
- MIC [6]: 25 µg/mL
- MIC [7]: > 100 µg/mL
- MIC [8]: 25 µg/mL
- MIC [9]: > 100 µg/mL
- MIC [10]: > 100 µg/mL
- MIC [11]: > 100 µg/mL
- MIC [12]: 100 µg/mL
- MIC [13]: 50 µg/mL
- MIC [14]: > 100 µg/mL
- MIC [15]: 100 µg/mL
- MIC [16]: 12.5 µg/mL
- MIC [17]: > 100 µg/mL
- MIC [18]: 6.3 µg/mL
- MIC [19]: 0.8 µg/mL
- MIC [20]: > 100 µg/mL
- MIC [21]: 25 µg/mL
- MIC ([22]; Proteus vulgaris, 9416, 18 h): 12.5 µg/mL
- MIC [23]: 12.5 µg/mL
- MIC [24]: 25 µg/mL
- MIC [25]: > 100 µg/mL

Structure (SMILES): CC1(C)C(NC(=O)Cc2ccccc2)C(=O)N1S(=O)(=O)O (racemic) [Example 26, (±)-4,4-Dimethyl-2-oxo-3-[(phenylacetyl)amino]-1-azetidinesulfonic acid, potassium salt]
- MIC [1]: > 100 µg/mL
- MIC [2]: > 100 µg/mL
- MIC [3]: > 100 µg/mL
- MIC [4]: 50 µg/mL
- MIC [5]: > 100 µg/mL
- MIC [6]: > 100 µg/mL
- MIC [7]: > 100 µg/mL
- MIC [8]: > 100 µg/mL
- MIC [9]: > 100 µg/mL
- MIC [10]: > 100 µg/mL
- MIC [11]: > 100 µg/mL
- MIC [12]: > 100 µg/mL
- MIC [13]: > 100 µg/mL
- MIC [14]: > 100 µg/mL
- MIC [15]: > 100 µg/mL
- MIC [16]: > 100 µg/mL
- MIC [17]: > 100 µg/mL
- MIC [18]: > 100 µg/mL
- MIC [19]: 100 µg/mL
- MIC [20]: > 100 µg/mL
- MIC [21]: > 100 µg/mL
- MIC ([22]; 18 hours, read-out: M.I.C.): 100 µg/mL
- MIC ([23]; read-out: M.I.C.): > 100 µg/mL
- MIC [24]: > 100 µg/mL
- MIC [25]: > 100 µg/mL
